What was measured:
[1] = biological target: T1, intracellular cathepsin C in THP-1 cells (Homo sapiens, UniProt P53634); experiment: In vitro inhibitory effect on intracellular cathepsin C in THP-1 cells; type: cell-based; conditions: 1 h incubation at 37° C., h-gly-arg-amc 200 μM, read-out: THP-1 CatC IC50
T1 construct: endogenous in cells; host or cells: THP-1

[2] = biological target: human recombinant cathepsin C (Homo sapiens, UniProt P53634); experiment: In vitro inhibitory effect on human recombinant cathepsin C (h-gly-arg-amc substrate); type: biochemical; conditions: human recombinant cathepsin C 2 nM, 30 min preincubation at 25° C., substrate 100 μM; read-out: CatC IC50
Sequence of human recombinant cathepsin C (P53634 25-463): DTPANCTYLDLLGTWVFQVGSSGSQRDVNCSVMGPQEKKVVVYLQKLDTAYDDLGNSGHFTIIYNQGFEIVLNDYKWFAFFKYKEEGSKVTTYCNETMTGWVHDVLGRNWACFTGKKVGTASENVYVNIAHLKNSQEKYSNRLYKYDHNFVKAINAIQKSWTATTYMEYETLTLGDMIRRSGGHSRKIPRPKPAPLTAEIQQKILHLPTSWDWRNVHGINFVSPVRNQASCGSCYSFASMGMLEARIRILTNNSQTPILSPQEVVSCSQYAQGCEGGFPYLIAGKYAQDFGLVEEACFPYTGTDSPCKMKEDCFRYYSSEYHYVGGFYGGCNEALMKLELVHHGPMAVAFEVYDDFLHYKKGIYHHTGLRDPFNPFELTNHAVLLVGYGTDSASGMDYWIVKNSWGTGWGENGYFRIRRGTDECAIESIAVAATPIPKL

[3] = biological target: T2, intracellular cathepsin C in U937 cells (Homo sapiens, UniProt P53634); experiment: In vitro inhibitory effect on intracellular cathepsin C in U937 cells; type: cell-based; conditions: 1 h incubation at 37° C., h-gly-arg-amc 200 μM, read-out: U937 CatC IC50
T2 construct: endogenous in cells; host or cells: U937
T2 sequence (P53634 25-463): as above

[4] = test system: COPD rat model; experiment: In vivo anti-inflammatory activity assessment, COPD model (fumigation and LPS); parameters: species or system rats; conditions: oral 5, 15, 45 mg/kg twice a day
Method: In Vivo Anti-Inflammatory Activity Assessment:
(§1) A combination of fumigation and LPS (Sigma) was used. […] Except for the negative control group, all rats were exposed to cigarette smoke (XIONGSHI) for 45 min in each day from day 1 to day 13 and day 15 to day 30, subjected to tracheal instillation of LPS ([…]) on day 0 (start point of the study), and subjected to tracheal instillation of LPS ([…]) on day 14. The body weight was recorded every three days, and the behavior, coat color and breathing were observed daily. On day 31, the animals were euthanized with an overdose of chloral hydrate. Subsequently, lung, bronchoalveolar lavage fluid (BALF), blood, bone marrow samples were collected and stored at −80° C. until being detected. The levels of cathepsin C and NSP were detected with previously described methods, and cytokine levels in all samples were analyzed by ELISA kits (MULTI SCIENCES).

[5] = test system: cytokines (IFN-γ, IL-1β, IL-6, IL-17, TNF-α, GM-CSF, IL-10); experiment: Cytokine levels in COPD model by ELISA; type: in vivo; conditions: COPD rats; bone marrow, blood, lung, and BALF; dose-dependent
Method: as §1

[6] = test system: cathepsin C and downstream NSPs; experiment: Cathepsin C and NSP levels in COPD model; type: in vivo; conditions: COPD rats, oral 5, 15, 45 mg/kg twice a day; bone marrow, blood, lung, and BALF; dose-dependent
Method: as §1

[7] = test system: ICR mice; experiment: In vivo acute toxicity evaluation; conditions: mouse, po, 1500 mg/kg
From the text: (§2) In Vivo Acute Toxicity Evaluation:
(§3) The mice were randomly divided into two groups and subjected to adaptive feeding for one week. […] The body weight, mortality and behavior of the mice were observed and recorded daily for one week. Subsequently, the mice were anesthetized and the tissues were used for HE staining.

[8] = In vivo acute toxicity evaluation; conditions: mouse, ICR mice, oral, 1500 mg/kg at one time, observed one week
From the text: as §2, §3

[9] = test system: cathepsin C and NSPs; experiment: Test of in vivo inhibition of cathepsin C and NSPs in normal mice; conditions: C57BL/6 mice, oral 5, 15, 45 mg/kg for 6 days; bone marrow and blood; dose-dependent
Method: Test of In Vivo Inhibition of Cathepsin C and NSPs.
C57BL/6 mice (half sex, about 20 g, purchased from the Department of Animal Science of Anhui Medical University) were randomly divided into four groups (N=6). […] Mice in the control group were administered with the same amount of normal saline twice a day for 6 days. At the end, bone marrow and blood were drawn to analyze the activity of cathepsin C and NSPs. Bone marrow and blood lysates were added to a 384-well plate. A synthetic peptide substrate was used to analyze the activity of NSPs and cathepsin C.

T1 sequence (P53634 25-463): as above

IC50 [1] [nM]	IC50 [3] [nM]	Compound	IC50 [2] [nM]	histopathological changes of lung tissue (H&E staining) ([4]; COPD rat model)	body weight ([4]; COPD rats)	pulmonary inflammation and systemic inflammation ([4]; COPD rats, 28 days, compared with the model group)	IL-10 level [5]	level of pro-inflammatory cytokines (IFN-γ, IL-1β, IL-6, IL-17, TNF-α, and GM-CSF) [5]	cathepsin C activity and downstream NSP activation [6]	pathological changes in tissues and organs (HE staining) [7]	LD50 at 1 week [8] [mg/kg]	cathepsin C activity and downstream NSP activation [9]
139.8 ± 1.03	156 ± 2.13	CON1CCN(c2ccc(Nc3ncc(C)c(Nc4cccc(C(F)(F)F)c4)n3)nc2)CC1 [Compound 67, 5-methyl-N^2-(5-(4-methoxypiperazin-1-yl)pyridin-2-yl)-N^4-(3-(trifluoromethyl)phenyl)pyrimidine-2,4-diamine]	167 ± 2.01	–	–	–	–	–	–	–	–	–
240.5 ± 1.2	199 ± 2.03	CCCCN1CCN(c2ccc(Nc3ncc(Cl)c(Nc4cccc(C(F)(F)F)c4)n3)nc2)CC1 [Compound 48, N^2-(5-(4-butylpiperazin-1-yl)pyridin-2-yl)-5-chloro-N^4-(3-(trifluoromethyl)phenyl)pyrimidine-2,4-diamine]	–	–	–	–	–	–	–	–	–	–
–	–	CN1CCN(c2ccc(Nc3ncc(Cl)c(Nc4cccc(C(F)(F)F)c4)n3)nc2)CC1 [Compound 41, 5-chloro-N^2-(5-(4-methylpiperazin-1-yl)pyridin-2-yl)-N^4-(3-(trifluoromethyl)phenyl)pyrimidine-2,4-diamine]	–	ameliorated these histopathological changes in an obvious dose-dependent manner	lost their weight slowly and gained weight slightly after about 20 days	significantly less suffered from pulmonary inflammation and systemic inflammation	increased cytokines (IL-10) in a dose-dependent manner	decreased level of pro-inflammatory cytokines	decreased obviously	no pathological changes were found	> 1500	decreased obviously

Compound	IC50 [1] [nM]	IC50 [3] [nM]	IC50 [2] [nM]	histopathological changes of lung tissue (H&E staining) ([4]; COPD rat model)	body weight ([4]; COPD rats)	pulmonary inflammation and systemic inflammation ([4]; COPD rats, 28 days, compared with the model group)	IL-10 level [5]	level of pro-inflammatory cytokines (IFN-γ, IL-1β, IL-6, IL-17, TNF-α, and GM-CSF) [5]	cathepsin C activity and downstream NSP activation [6]	pathological changes in tissues and organs (HE staining) [7]	LD50 at 1 week [8] [mg/kg]	cathepsin C activity and downstream NSP activation [9]
5-chloro-N^2-(5-(4-(dimethylamino)phenyl)pyridin-2-yl)-N^4-(3-(trifluoromethyl)phenyl)pyrimidine-2,4-diamine [Compound 61]	278.2 ± 1.2	377.5 ± 0.9	305.3 ± 2.7	–	–	–	–	–	–	–	–	–

— US12595236B2, “Pyrimidine-2,4-diamine compound and preparation method and application thereof” (ANHUI MEDICAL UNIVERSITY, priority 2021, dated 2026)
